Laboratory results published in patent publication US9255090B2, “Heterocyclyl derivatives and their use as prostaglandin D2 receptor modulators” (Actelion Pharmaceuticals Ltd., priority 2012, dated 2016).
pIC50: −log10 of the molar value.

Target: hCRTH2 receptor (Homo sapiens (Human), UniProt Q9Y5Y4)
Assay: hCRTH2 receptor membranes radioligand (3H-PGD2) displacement assay
Format: binding
Settings: 3H-PGD2 radioligand displacement, HEK293-hCRTH2 membranes
Method in brief: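 Compound was first mixed with buffer, then 3H-PGD2 was added at 2.5 nM, and the reaction was started with hCRTH2 membranes from HEK293 cells at 20 μg/well. After 90 min at room temperature, mixtures were filtered and washed with ice-cold buffer, and retained radioactivity was counted.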

Chain of hCRTH2 receptor (Q9Y5Y4 whole entry): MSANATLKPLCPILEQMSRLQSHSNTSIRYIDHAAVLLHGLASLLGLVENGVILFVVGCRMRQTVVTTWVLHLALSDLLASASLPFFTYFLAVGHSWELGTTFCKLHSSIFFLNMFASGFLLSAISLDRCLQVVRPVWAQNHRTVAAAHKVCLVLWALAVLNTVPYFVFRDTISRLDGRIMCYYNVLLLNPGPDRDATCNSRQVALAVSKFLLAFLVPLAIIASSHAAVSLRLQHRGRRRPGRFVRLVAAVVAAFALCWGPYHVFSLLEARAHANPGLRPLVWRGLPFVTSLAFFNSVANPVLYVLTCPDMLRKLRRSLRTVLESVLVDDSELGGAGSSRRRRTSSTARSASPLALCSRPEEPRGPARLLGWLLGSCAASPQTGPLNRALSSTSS

| SMILES | pIC50 |
| --- | --- |
| C=C(C)CCOC(=O)N1CCc2c(F)ccc(-c3cc(CC(=O)O)ccc3OCC)c2C1 [Example 379, 8-(5-Carboxymethyl-2-ethoxy-phenyl)-5-fluoro-3,4-dihydro-1H-isoquinoline-2-carboxylic acid 3-methyl-but-3-enyl ester] | 8.60 |
| CC(C)Oc1ccc(CC(=O)O)cc1-c1ccc(F)c2c1CN(C(=O)CC1CCOc3ccccc31)CC2 (racemic) [Example 290] | 8.30 |
| COc1ccc(CC(=O)O)cc1-c1ccc(F)c2c1CN(C(=O)OCc1cc(C)nn1C)CC2 [Example 149, 8-(5-Carboxymethyl-2-methoxy-phenyl)-5-fluoro-3,4-dihydro-1H-isoquinoline-2-carboxylic acid 2,5-dimethyl-2H-pyrazol-3-ylmethyl ester] | 8.16 |
| CCOc1cc(CC(=O)O)ccc1-c1ccc(F)c2c1CN(C(=O)C1CCc3cccc(OC)c3C1)CC2 (racemic) [Example 325] | 8.74 |
| C[C@H](CC(=O)N1CCc2c(F)ccc(-c3cc(CC(=O)O)ccc3OCC(F)(F)F)c2C1)c1ccccc1 [Example 301, [3-[5-Fluoro-2-((R)-3-phenyl-butyryl)-1,2,3,4-tetrahydro-isoquinolin-8-yl]-4-(2,2,2-trifluoro-ethoxy)-phenyl]-acetic acid] | 8.44 |
| CC(C)Oc1cc(CC(=O)O)ccc1-c1ccc(F)c2c1CN(C(=O)CC(C)(C)c1ccccc1)CC2 [Example 354, {4-[5-Fluoro-2-(3-methyl-3-phenyl-butyryl)-1,2,3,4-tetrahydro-isoquinolin-8-yl]-3-isopropoxy-phenyl}-acetic acid] | 8.38 |
| CCOc1cc(CC(=O)O)ccc1-c1ccc(F)c2c1CN(C(=O)NCc1ccccc1)CC2 [Example 446, [4-(2-Benzylcarbamoyl-5-fluoro-1,2,3,4-tetrahydro-isoquinolin-8-yl)-3-ethoxy-phenyl]-acetic acid] | 8.33 |
| O=C(O)Cc1ccccc1-c1ccc(F)c2c1CN(C(=O)OCc1ccccc1)CC2 [Example 30, 8-(2-Carboxymethyl-phenyl)-5-fluoro-3,4-dihydro-1H-isoquinoline-2-carboxylic acid benzyl ester] | 6.06 |
| CCOc1cc(CC(=O)O)ccc1-c1ccc(F)c2c1CN(C(=O)OCc1ccnn1C)CC2 [Example 388, 8-(4-Carboxymethyl-2-ethoxy-phenyl)-5-fluoro-3,4-dihydro-1H-isoquinoline-2-carboxylic acid 2-methyl-2H-pyrazol-3-ylmethyl ester] | 8.42 |
| CC(C)Oc1cc(CC(=O)O)ccc1-c1ccc(F)c2c1CN(C(=O)C[C@@H](C)c1ccccc1)CC2 [Example 356, {4-[5-Fluoro-2-((R)-3-phenyl-butyryl)-1,2,3,4-tetrahydro-isoquinolin-8-yl]-3-isopropoxy-phenyl}-acetic acid] | 8.68 |
| CCCc1ccc(CC(=O)O)cc1-c1ccc(F)c2c1CN(C(=O)OCc1ccccc1)CC2 [Example 215, 8-(5-Carboxymethyl-2-propyl-phenyl)-5-fluoro-3,4-dihydro-1H-isoquinoline-2-carboxylic acid benzyl ester] | 8.44 |
| CC(CC(=O)N1CCc2c(F)ccc(-c3ccc(CC(=O)O)cc3OCC(F)(F)F)c2C1)c1ccccn1 (racemic) [Example 288] | 8.00 |
| COc1ccc(CC(=O)O)cc1-c1ccc(F)c2c1CN(C(=O)OCc1ccccc1)C2 [Example 18, 4-(5-Carboxymethyl-2-methoxy-phenyl)-7-fluoro-1,3-dihydro-isoindole-2-carboxylic acid benzyl ester] | 6.78 |
| CCOc1ccc(CC(=O)O)cc1-c1ccc(F)c2c1CN(C(=O)C1CCc3cccc(OC)c3C1)CC2 (racemic) [Example 333] | 7.64 |
| COc1ccc(CC(=O)O)cc1-c1ccc(F)c2c1CN(C(=O)CC1(c3ccccc3)CCC1)CC2 [Example 250, (3-{5-Fluoro-2-[2-(1-phenyl-cyclobutyl)-acetyl]-1,2,3,4-tetrahydro-isoquinolin-8-yl}-4-methoxy-phenyl)-acetic acid] | 6.84 |
| CCOc1cc(CC(=O)O)ccc1-c1ccc(F)c2c1CN(C(=O)NCc1cccc(F)c1)CC2 [Example 441, {3-Ethoxy-4-[5-fluoro-2-(3-fluoro-benzylcarbamoyl)-1,2,3,4-tetrahydro-isoquinolin-8-yl]-phenyl}-acetic acid] | 7.76 |
| CCOc1ccc(CC(=O)O)cc1-c1ccc(F)c2c1CN(C(=O)C(C)Cc1ccccc1)CC2 (stereo not drawn) [Example 213] | 6.95 |
| COc1ccc(CC(=O)O)cc1-c1ccc(F)c2c1CN(C(=O)CCn1ncc3ccccc31)CC2 [Example 67, {3-[5-Fluoro-2-(3-indazol-1-yl-propionyl)-1,2,3,4-tetrahydro-isoquinolin-8-yl]-4-methoxy-phenyl}-acetic acid] | 7.67 |
| CCOc1cc(CC(=O)O)ccc1-c1ccc(F)c2c1CN(C(=O)OCC1CC1)CC2 [Example 391, 8-(4-Carboxymethyl-2-ethoxy-phenyl)-5-fluoro-3,4-dihydro-1H-isoquinoline-2-carboxylic acid cyclopropylmethyl ester] | 8.80 |
| COc1ccc(CC(=O)O)cc1-c1ccc(C(F)(F)F)c2c1CN(C(=O)OCc1ccccc1)CC2 [Example 158, 8-(5-Carboxymethyl-2-methoxy-phenyl)-5-trifluoromethyl-3,4-dihydro-1H-isoquinoline-2-carboxylic acid benzyl ester] | 7.17 |
| COc1ccc(CC(=O)O)cc1-c1ccc(F)c2c1CN(C(=O)Cc1cn(C)c3ccccc13)CC2 [Example 119, (3-{5-Fluoro-2-[2-(1-methyl-1H-indol-3-yl)-acetyl]-1,2,3,4-tetrahydro-isoquinolin-8-yl}-4-methoxy-phenyl)-acetic acid] | 7.16 |
| COc1ccc(CC(=O)O)cc1-c1cccc2c1CN(C(=O)OCc1ccccc1)CC2 [Example 170, 8-(5-Carboxymethyl-2-methoxy-phenyl)-3,4-dihydro-1H-isoquinoline-2-carboxylic acid benzyl ester] | 6.96 |
| COc1ccc(CC(=O)O)cc1-c1ccc(F)c2c1CN(C(=O)CCc1ncccn1)CC2 [Example 93, {3-[5-Fluoro-2-(3-pyrimidin-2-yl-propionyl)-1,2,3,4-tetrahydro-isoquinolin-8-yl]-4-methoxy-phenyl}-acetic acid] | 6.16 |
| CCOC(=O)N1CCc2c(F)ccc(-c3cc(CC(=O)O)ccc3OC)c2C1 [Example 141, 8-(5-Carboxymethyl-2-methoxy-phenyl)-5-fluoro-3,4-dihydro-1H-isoquinoline-2-carboxylic acid ethyl ester] | 6.73 |

Results, then the compound that gave them:

| pIC50 | SMILES |
| --- | --- |
| 7.62 | COc1ccc(CC(=O)O)cc1-c1ccc(Cl)c2c1CN(C(=O)CCN1CCCc3ccccc31)CC2 [Example 77, {3-[5-Chloro-2-(3-3,4-dihydro-2H-quinolin-1-yl-propionyl)-1,2,3,4-tetrahydro-isoquinolin-8-yl]-4-methoxy-phenyl}-acetic acid] |
| 7.75 | COc1ccc(CC(=O)O)cc1-c1ccc(F)c2c1CN(C(=O)NCc1ccccc1F)CC2 [Example 130, {3-[5-Fluoro-2-(2-fluoro-benzylcarbamoyl)-1,2,3,4-tetrahydro-isoquinolin-8-yl]-4-methoxy-phenyl}-acetic acid] |
| 7.22 | COc1ccc(CC(=O)O)cc1-c1ccc(F)c2c1CN(C(=O)NCc1cccc(F)c1)CC2 [Example 131, {3-[5-Fluoro-2-(3-fluoro-benzylcarbamoyl)-1,2,3,4-tetrahydro-isoquinolin-8-yl]-4-methoxy-phenyl}-acetic acid] |
| 7.24 | COc1ccc(CC(=O)O)cc1-c1ccc(F)c2c1CN(C(=O)CCc1cccnc1)CC2 [Example 51, {3-[5-Fluoro-2-(3-pyridin-3-yl-propionyl)-1,2,3,4-tetrahydro-isoquinolin-8-yl]-4-methoxy-phenyl}-acetic acid] |
| 7.54 | COc1ccc(CC(=O)O)cc1-c1ccc(F)c2c1CN(C(=O)C(C)Cc1ccccc1)CC2 (racemic) [Example 109, (±)-{3-[5-Fluoro-2-(2-methyl-3-phenyl-propionyl)-1,2,3,4-tetrahydro-isoquinolin-8-yl]-4-methoxy-phenyl}-acetic acid] |
| 7.02 | COc1ccc(CC(=O)O)cc1-c1ccc(F)c2c1CN(C(=O)[C@@H]1CCCc3ccccc31)CC2 [Example 269, {3-[5-Fluoro-2-((R)-1,2,3,4-tetrahydro-naphthalene-1-carbonyl)-1,2,3,4-tetrahydro-isoquinolin-8-yl]-4-methoxy-phenyl}-acetic acid] |
| 8.08 | COc1ccc(CC(=O)O)cc1-c1ccc(F)c2c1CN(C(=O)C1CCc3cccc(OC)c3C1)CC2 (racemic) [Example 241] |
| 7.42 | COc1ccc(CC(=O)O)cc1-c1ccc(Cl)c2c1CN(C(=O)CCc1cn(C)c3ccccc13)CC2 [Example 75, (3-{5-Chloro-2-[3-(1-methyl-1H-indol-3-yl)-propionyl]-1,2,3,4-tetrahydro-isoquinolin-8-yl}-4-methoxy-phenyl)-acetic acid] |
| 7.74 | COc1ccc(CC(=O)O)cc1-c1ccc(F)c2c1CN(C(=O)C[C@H](C)c1ccccc1)CC2 [Example 107, {3-[5-Fluoro-2-((S)-3-phenyl-butyryl)-1,2,3,4-tetrahydro-isoquinolin-8-yl]-4-methoxy-phenyl}-acetic acid] |
| 8.43 | COc1ccc(CC(=O)O)cc1-c1ccc(Cl)c2c1CN(C(=O)[C@@H]1C[C@H]1c1ccc(Cl)cc1)CC2 [Example 68, (3-{5-Chloro-2-[(1R,2R)-2-(4-chloro-phenyl)-cyclopropanecarbonyl]-1,2,3,4-tetrahydro-isoquinolin-8-yl}-4-methoxy-phenyl)-acetic acid] |
| 8.27 | CCOc1ccc(CC(=O)O)cc1-c1ccc(F)c2c1CN(C(=O)NCc1ccccc1Cl)CC2 [Example 436, {3-[2-(2-Chloro-benzylcarbamoyl)-5-fluoro-1,2,3,4-tetrahydro-isoquinolin-8-yl]-4-ethoxy-phenyl}-acetic acid] |
| 6.23 | COc1ccc(CC(=O)O)cc1-c1ccc(F)c2c1CN(C(=O)CC1c3ccccc3CCN1C)CC2 (racemic) [Example 259] |
